# Test results reported in patent US12139526B2, “Modified chimeric receptors and related compositions and methods” (Juno Therapeutics, Inc., priority 2015, dated 2024).
# B1: K28L: variant anti-CD19 CAR / junction region with K28L, numbering SEQ ID NO:5 (protein)
# chain: FWVLVVVGGVLACYSLLVTVAFIIFWVLRGRKKLLYIFKQPFMRPVQTTQEEDGCSCRFPEEEEGGCEL
# modifications: CD28-4-1BB
# Target: HLA-A*02:01 (Homo sapiens, UniProt P04439, D140Y/D185E/D98H/E176V/E277Q/G131W/G231S/I119V/I121R/I166T/I218V/L300P/L318F/N151K/N90K/P208A/P217A/Q86G/Q94H/R138H/R169H/T345S)
# Experiment: REVEAL Epitope Discovery System in vitro MHC-peptide binding score
# Conditions: REVEAL score, positive control peptide set at 100%; greater than 50 = good or high affinity binding
# Protocol: (§1) Actual binding affinities for certain HLA class I alleles (A*02:01, A*03:01. A*11:01, and B*08:01) were assessed in vitro for exemplary overlapping 9 amino acid peptide sequences within a portion of the 26 amino acid junction region spanning the CD28 and 4-1BB junction. Specifically, assessment was of a series of overlapping 9-mer peptides derived from the sequence […] (set forth in SEQ ID NO: 7), which contains a portion of the CD28 transmembrane domain and 4-1BB costimulatory domain spanning the junction between the domains (bond joining the two amino acids noted in underline). In addition, a series of overlapping 9-mer peptides of each of a number of different variants of this portion also were assessed, each variant containing a mutation or mutations in this region as described in Example 2.
# (§2) The various 9-mer overlapping peptides were synthesized and their purity tested by MALDI-TOF Mass Spectrometry. The synthetic peptides were then incubated with recombinant MHC molecules to assess binding properties using the REVEAL Epitope Discovery System, which is a high-throughput binding assay that measures the degree to which each peptide is able to stabilize a ternary MHC-peptide complex (ProImmune, Oxford, United Kingdom). Each peptide was separately tested for this ability with respect to each of the HLA class I alleles, normalized to the degree observed for a positive control (known T cell epitope for the relevant allele). The results are reported as a score, in which the binding was normalized to the positive control peptide set at 100%.
row,A*02:01 In Vitro Score,Molecule
1,3.50,"IFWVKRGNK [9-mer variant junction peptide, R31N]"
2,6.10,"IFWVQRGRK [9-mer variant junction peptide, K28Q]"
3,5.80,"IIFWVQRGR [9-mer variant junction peptide, K28Q]"
4,7.10,"IFWVHRGRK [9-mer variant junction peptide, K28H]"
5,4.70,"WVKRGAKKL [9-mer variant junction peptide, R31A]"
6,16.10,"IFWVQRGNK [9-mer variant junction peptide, K28Q/R31N]"
7,9.30,"IIFWVKRGN [9-mer variant junction peptide, R31N]"
8,13.80,"IFWVKRGAK [9-mer variant junction peptide, R31A]"
9,2.20,"AFIIFWVAR [9-mer variant junction peptide, K28A]"
10,9.40,"FWVKRGLKK [9-mer variant junction peptide, R31L]"
11,1.20,"VAFIIFWVR [9-mer variant junction peptide, K28R]"
12,85.90,"IIFWVKRGA [9-mer variant junction peptide, R31A]"
13,3.90,"WVKRGHKKL [9-mer variant junction peptide, R31H]"
14,4.50,"AFIIFWVSR [9-mer variant junction peptide, K28S]"
15,8.40,"IIFWVLRGR [9-mer variant junction peptide, K28L]"
16,2.60,"IIFWVSRGR [9-mer variant junction peptide, K28S]"

row,A*02:01 In Vitro Score,Molecule
1,1.30,"IFWVSRGRK [9-mer variant junction peptide, K28S]"
2,13.60,"IIFWVKRGS [9-mer variant junction peptide, R31S]"
3,70.60,"VAFIIFWVS [9-mer variant junction peptide, K28S]"
4,0.30,"AFIIFWVHR [9-mer variant junction peptide, K28H]"
5,2.40,"IFWVKRGSK [9-mer variant junction peptide, R31S]"
6,2.40,"WVKRGNKKL [9-mer variant junction peptide, R31N]"
7,82.20,"IIFWVKRGL [9-mer variant junction peptide, R31L]"
8,0.70,"VAFIIFWVK [9-mer of CD28/4-1BB junction region, mutation none]"
9,3.00,"WVKRGSKKL [9-mer variant junction peptide, R31S]"
10,2.20,"IFWVKRGHK [9-mer variant junction peptide, R31H]"
11,37.30,"FIIFWVHRG [9-mer variant junction peptide, K28H]"
12,4.70,"IIFWVHRGR [9-mer variant junction peptide, K28H]"
13,4.30,"WVQRGNKKL [9-mer variant junction peptide, K28Q/R31N]"
14,9.60,"IIFWVARGR [9-mer variant junction peptide, K28A]"
15,1.70,"IIFWVKRGR [9-mer of CD28/4-1BB junction region, mutation none]"
16,8.70,"FWVKRGNKK [9-mer variant junction peptide, R31N]"

# Same assay, conditions: for at least one HLA allele (A*02:01, A*03:01, A*11:01, B*08:01) and/or at least one peptide; in silico or in vitro
row,Molecule,predicted or actual binding affinity or score for HLA class I
1,B1,reduced predicted or actual binding affinity or score

# Target: HLA-A*03:01 (Homo sapiens, UniProt P04439)
# Experiment: as above
# Conditions: positive control peptide set at 100%, greater than 50 = good or high affinity binding
# Protocol: as §1, §2
row,A*03:01 In Vitro,Molecule
1,8.00,"IFWVKRGNK [9-mer variant junction peptide, R31N]"
2,36.70,"IFWVQRGRK [9-mer variant junction peptide, K28Q]"
3,18.00,"IIFWVQRGR [9-mer variant junction peptide, K28Q]"
4,37.80,"IFWVHRGRK [9-mer variant junction peptide, K28H]"
5,4.10,"WVKRGAKKL [9-mer variant junction peptide, R31A]"
6,23.20,"IFWVQRGNK [9-mer variant junction peptide, K28Q/R31N]"
7,4.30,"IIFWVKRGN [9-mer variant junction peptide, R31N]"
8,22.00,"IFWVKRGAK [9-mer variant junction peptide, R31A]"
9,0.50,"AFIIFWVAR [9-mer variant junction peptide, K28A]"
10,0.70,"VAFIIFWVR [9-mer variant junction peptide, K28R]"
11,42.90,"IIFWVKRGA [9-mer variant junction peptide, R31A]"
12,1.40,"WVKRGHKKL [9-mer variant junction peptide, R31H]"
13,0.30,"AFIIFWVSR [9-mer variant junction peptide, K28S]"
14,2.80,"IIFWVLRGR [9-mer variant junction peptide, K28L]"
15,25.30,"IIFWVSRGR [9-mer variant junction peptide, K28S]"
16,39.20,"IFWVSRGRK [9-mer variant junction peptide, K28S]"
17,16.20,"IIFWVKRGS [9-mer variant junction peptide, R31S]"
18,0.70,"VAFIIFWVS [9-mer variant junction peptide, K28S]"
19,0.30,"AFIIFWVHR [9-mer variant junction peptide, K28H]"
20,10.40,"IFWVKRGSK [9-mer variant junction peptide, R31S]"
21,0.90,"WVKRGNKKL [9-mer variant junction peptide, R31N]"
22,15.90,"IIFWVKRGL [9-mer variant junction peptide, R31L]"
23,1.50,"VAFIIFWVK [9-mer of CD28/4-1BB junction region, mutation none]"
24,1.90,"WVKRGSKKL [9-mer variant junction peptide, R31S]"
25,9.00,"IFWVKRGHK [9-mer variant junction peptide, R31H]"
26,0.00,"FIIFWVHRG [9-mer variant junction peptide, K28H]"
27,30.10,"IIFWVHRGR [9-mer variant junction peptide, K28H]"
28,1.50,"WVQRGNKKL [9-mer variant junction peptide, K28Q/R31N]"
29,18.60,"IIFWVARGR [9-mer variant junction peptide, K28A]"
30,24.30,"IIFWVKRGR [9-mer of CD28/4-1BB junction region, mutation none]"

# Target: HLA-A*11:01 (Homo sapiens, UniProt P04439, A114D/D185E/E176A/F33Y/L180Q/S129P/T187R)
# Experiment: as above
# Set-up: key: % binding, normalized to positive control peptide set at 100%
# Conditions: binding normalized to positive control peptide set at 100%, greater than 50 considered good or high affinity binding
# Protocol: as §1, §2
row,A*11:01 In Vitro Score,Molecule
1,45.90,"IFWVKRGNK [9-mer variant junction peptide, R31N]"
2,128.50,"IFWVQRGRK [9-mer variant junction peptide, K28Q]"
3,72.80,"IIFWVQRGR [9-mer variant junction peptide, K28Q]"
4,36.60,"IFWVHRGRK [9-mer variant junction peptide, K28H]"
5,4.60,"WVKRGAKKL [9-mer variant junction peptide, R31A]"
6,67.50,"IFWVQRGNK [9-mer variant junction peptide, K28Q/R31N]"
7,42.10,"IIFWVKRGN [9-mer variant junction peptide, R31N]"
8,69.70,"IFWVKRGAK [9-mer variant junction peptide, R31A]"
9,51.80,"AFIIFWVAR [9-mer variant junction peptide, K28A]"
10,34.60,"VAFIIFWVR [9-mer variant junction peptide, K28R]"
11,22.60,"IIFWVKRGA [9-mer variant junction peptide, R31A]"
12,2.80,"WVKRGHKKL [9-mer variant junction peptide, R31H]"
13,54.00,"AFIIFWVSR [9-mer variant junction peptide, K28S]"
14,35.20,"IIFWVLRGR [9-mer variant junction peptide, K28L]"
15,68.90,"IIFWVSRGR [9-mer variant junction peptide, K28S]"
16,39.20,"IFWVSRGRK [9-mer variant junction peptide, K28S]"

row,A*11:01 In Vitro Score,Molecule
1,8.90,"FWVARGRKK [9-mer variant junction peptide, K28A]"
2,100.00,"IIFWVKRGS [9-mer variant junction peptide, R31S]"
3,25.10,"VAFIIFWVS [9-mer variant junction peptide, K28S]"
4,34.90,"AFIIFWVHR [9-mer variant junction peptide, K28H]"
5,5.00,"WVQRGNKKS [9-mer variant junction peptide, mutation printed K28Q/L34S]"
6,47.90,"IFWVKRGSK [9-mer variant junction peptide, R31S]"
7,4.10,"WVKRGNKKL [9-mer variant junction peptide, R31N]"
8,32.40,"IIFWVKRGL [9-mer variant junction peptide, R31L]"
9,109.20,"VAFIIFWVK [9-mer of CD28/4-1BB junction region, mutation none]"
10,11.80,"WVKRGSKKL [9-mer variant junction peptide, R31S]"
11,30.90,"IFWVKRGHK [9-mer variant junction peptide, R31H]"
12,0.90,"FIIFWVHRG [9-mer variant junction peptide, K28H]"
13,77.50,"IIFWVHRGR [9-mer variant junction peptide, K28H]"
14,10.70,"WVQRGNKKL [9-mer variant junction peptide, K28Q/R31N]"
15,70.60,"IIFWVARGR [9-mer variant junction peptide, K28A]"
16,54.50,"IIFWVKRGR [9-mer of CD28/4-1BB junction region, mutation none]"

# Target: HLA-B*08:01 (Homo sapiens, UniProt P01889, A93T/A95T/D138N/E176V/E187T/K202T/Q94N/R180D/S35A/V36M/Y33D/Y91F)
# Experiment: as above
# Set-up: key: % binding, normalized to positive control peptide set at 100%
# Conditions: binding normalized to positive control peptide set at 100%, greater than 50 considered good or high affinity binding
# Protocol: as §1, §2
row,B*08:01 In Vitro Score,Molecule
1,0.10,"IFWVKRGNK [9-mer variant junction peptide, R31N]"
2,0.00,"IFWVQRGRK [9-mer variant junction peptide, K28Q]"
3,0.10,"IIFWVQRGR [9-mer variant junction peptide, K28Q]"
4,0.10,"IFWVHRGRK [9-mer variant junction peptide, K28H]"
5,34.10,"WVKRGAKKL [9-mer variant junction peptide, R31A]"
6,0.10,"IFWVQRGNK [9-mer variant junction peptide, K28Q/R31N]"
7,0.90,"IIFWVKRGN [9-mer variant junction peptide, R31N]"
8,2.20,"IFWVKRGAK [9-mer variant junction peptide, R31A]"
9,0.20,"AFIIFWVAR [9-mer variant junction peptide, K28A]"
10,6.30,"FWVKRGLKK [9-mer variant junction peptide, R31L]"
11,0.10,"VAFIIFWVR [9-mer variant junction peptide, K28R]"
12,0.90,"IIFWVKRGA [9-mer variant junction peptide, R31A]"
13,47.60,"WVKRGHKKL [9-mer variant junction peptide, R31H]"
14,0.30,"AFIIFWVSR [9-mer variant junction peptide, K28S]"
15,0.40,"IIFWVLRGR [9-mer variant junction peptide, K28L]"
16,0.00,"IIFWVSRGR [9-mer variant junction peptide, K28S]"

row,B*08:01 In Vitro Score,Molecule
1,0.00,"IFWVSRGRK [9-mer variant junction peptide, K28S]"
2,0.40,"IIFWVKRGS [9-mer variant junction peptide, R31S]"
3,0.10,"VAFIIFWVS [9-mer variant junction peptide, K28S]"
4,0.30,"AFIIFWVHR [9-mer variant junction peptide, K28H]"
5,1.20,"IFWVKRGSK [9-mer variant junction peptide, R31S]"
6,65.90,"WVKRGNKKL [9-mer variant junction peptide, R31N]"
7,1.70,"IIFWVKRGL [9-mer variant junction peptide, R31L]"
8,0.30,"VAFIIFWVK [9-mer of CD28/4-1BB junction region, mutation none]"
9,56.10,"WVKRGSKKL [9-mer variant junction peptide, R31S]"
10,3.20,"IFWVKRGHK [9-mer variant junction peptide, R31H]"
11,0.20,"FIIFWVHRG [9-mer variant junction peptide, K28H]"
12,0.20,"IIFWVHRGR [9-mer variant junction peptide, K28H]"
13,32.00,"WVQRGNKKL [9-mer variant junction peptide, K28Q/R31N]"
14,0.30,"IIFWVARGR [9-mer variant junction peptide, K28A]"
15,0.00,"IIFWVKRGR [9-mer of CD28/4-1BB junction region, mutation none]"
